Experimental data from US10800816B2 (Baxalta GmbH, priority 2012, dated 2020).
Bridges are numbered along the chain shown (N, C = ends). [ ]: non-standard residue; d: D form. Aib = CC(C)(N)C(=O)O

Key:
[1] = target: T1, fl-TFPI / ASGPR (Homo sapiens, UniProt P10646); test: BIAcore: fl-TFPI binding to ASGPR in presence of peptide; conditions: 1 μM peptide
T1 sequence (P10646 29-304): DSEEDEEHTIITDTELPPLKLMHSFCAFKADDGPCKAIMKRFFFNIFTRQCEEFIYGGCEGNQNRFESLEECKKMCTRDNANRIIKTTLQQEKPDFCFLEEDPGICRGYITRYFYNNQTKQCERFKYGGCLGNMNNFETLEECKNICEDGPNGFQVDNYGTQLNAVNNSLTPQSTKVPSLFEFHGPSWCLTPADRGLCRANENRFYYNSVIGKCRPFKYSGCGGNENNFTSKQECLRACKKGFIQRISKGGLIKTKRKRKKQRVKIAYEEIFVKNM

[2] = target: T2, HUVEC TFPI (Homo sapiens, UniProt P10646); test: Cell-based extrinsic tenase assay (HUVEC); conditions: relative to 100 nM polyclonal anti-human TFPI antibody = 100%
T2 construct: endogenous in cells; host or cells: HUVEC stimulated with TNFα
T2 sequence (P10646 29-304): T1 sequence (P10646 29-304)

[3] = target: T3, plasma- and platelet TFPI (Homo sapiens, UniProt P10646); test: Thrombin generation in platelet-poor and platelet-rich plasma; type: biochemical
T3 construct: from tissue; donor PPP and PRP
T3 sequence (P10646 29-304): T1 sequence (P10646 29-304)

[4] = test system: TFPI; test: FXa inhibition assay (human TFPI); conditions: all human TFPI concentrations tested (up to 10 nM)
[5] = test system: TFPI; test: Extrinsic tenase inhibition assay; conditions: Table 19; 0.0625 nM TFPI
[6] = target: T4, TFPI (Homo sapiens, UniProt P10646); test: koff assay; type: binding; conditions: 24 hour incubation
T4 sequence (P10646 29-304): T1 sequence (P10646 29-304)

[7] = test system: cynomolgus TFPI 1-160; test: FXa inhibition assay with cynomolgus monkey TFPI 1-160; type: biochemical
[8] = target: T4, TFPI; test: FXa inhibition by TFPI in presence of Ca2+, phospholipid and protein S; type: biochemical; conditions: 50 nM peptide; PL+Ca2++protein S
Protocol: The effects of TFPI binding peptides on the anticoagulant activity of TFPI was tested in model systems (inhibition of FXa and TF-FVIIa-catalysed FX activation by TFPI) and in plasma (NP, PPP, PRP or TFPI-depleted plasma reconstituted with recombinant- or platelet-TFPI or platelets). […] […])/kobs in which At is absorbance at 405 nm at time t; A0 is initial absorbance at 405 nm; vs is final steady-state velocity; v0 is initial velocity; kobs is apparent rate constant for the transition from v0 to vs (FXa-TFPI to FXa-TFPI*). The values v0 and vs relative to rates of chromogenic substrate conversion by FXa in the absence of TFPI, represent the extent of loose and tight FXa-TFPI complex formation.

[9] = in vitro; conditions: human, plasma
[10] = target: T5, fl-TFPI / LRP (Homo sapiens, UniProt P10646); test: BIAcore: fl-TFPI binding to LRP in presence of peptide; conditions: 1 μM peptide, 10 nM fl-TFPI
T5 sequence (P10646 29-304): T1 sequence (P10646 29-304)
T5 sequence (Q07954 852-1182 partner limits assumed): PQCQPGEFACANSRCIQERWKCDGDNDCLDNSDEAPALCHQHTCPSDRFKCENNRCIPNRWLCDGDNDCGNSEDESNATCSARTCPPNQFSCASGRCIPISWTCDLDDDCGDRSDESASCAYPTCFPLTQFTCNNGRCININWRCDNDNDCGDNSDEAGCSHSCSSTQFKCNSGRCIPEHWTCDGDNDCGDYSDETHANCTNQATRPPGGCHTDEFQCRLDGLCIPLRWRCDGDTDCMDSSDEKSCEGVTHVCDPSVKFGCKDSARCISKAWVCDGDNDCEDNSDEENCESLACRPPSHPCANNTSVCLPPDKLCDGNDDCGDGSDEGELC

[11] = target: T6, platelet TFPI (Homo sapiens, UniProt P10646); test: TF-FVIIa-catalysed FX activation inhibited by platelet TFPI; type: biochemical; conditions: 50 nM peptide
T6 construct: from tissue; donor PPP and PRP
T6 sequence (P10646 29-304): T1 sequence (P10646 29-304)

[12] = test system: FVIII-inhibited whole blood; test: Rotation thromboelastography (ROTEM) in whole blood; set-up: species or system human; conditions: concentrations above 100 nM; 2 nM and 10 nM full length TFPI added
[13] = test system: neutrophil elastase; test: Proteolytic degradation of fl-TFPI by neutrophil elastase; type: biochemical, human; conditions: 1 μM peptide, 5 nM fl-TFPI, 5 nM elastase, up to 60 minutes
[14] = target: T4, TFPI; test: Plasma-based thrombin generation assay (calibrated automated thrombography), human plasma; conditions: 50-100 nM peptide; 10 nM flTFPI, FVIII-inhibited plasma

fl-TFPI interaction with ASGPR in presence of peptide [1]: interacted with ASGPR | concentration achieving full inhibition of TFPI [2]: about 10 nM | enhancement of thrombin generation ([3]; PPP): 3-4 fold | concentration sufficient to fully inhibit TFPI ([3]; PPP and PRP): 5 to 10 nM | enhancement of thrombin generation ([3]; PRP with inhibitory FVIII antibody): 3 fold | Extrinsic Tenase Assay Maximal inhibition (%) [5]: 99% | reduction of EC50 compared to JBT1857 [7]: approximately 200 fold | reduction of EC50 compared to the combination of JBT1837 and JBT1857 [7]: ~10 fold | blocking of TFPI [8]: almost completely blocked TFPI | remaining at 24 h [9]: 54%
Substance: Ac-FQSK[dP]NVHVDGYFERL[Aib]AKLSSSSSSSSSSSYYKWHCAMRDMKGTMTCVWVKF-NH2 (disulfide 37-48 (inferred)) [JBT2547]
inhibition of TFPI activity [4]: 100% | blocking of tracer JBT2271 binding after incubation [6]: continued to block binding of the tracer to TFPI | Cynomolgus Monkey TFPI 1-160 Maximal inhibition (%) ([7]; Table 20): 100% | fl-TFPI interaction with LRP in presence of peptide [10]: higher response than that observed for TFPI complexed with single peptides | blocking of platelet TFPI inhibition of TF-FVIIa-catalysed FX activation [11]: completely blocked the anticoagulant activity of TFPI | restoration of coagulation with added full length TFPI [12]: fully restored normal coagulation of FVIII-inhibited whole blood | effect on proteolysis of fl-TFPI by neutrophil elastase [13]: proteolysis of fl-TFPI was blocked during the monitored time | compensation of added flTFPI [14]: fully compensated the anticoagulant effect of 10 nM flTFPI
